ChEMBL document CHEMBL5230081, “Battle against Vancomycin-Resistant Bacteria: Recent Developments in Chemical Strategies” (J Med Chem, 2019)
Converted amounts (≈) assume the structure as drawn.

What was measured:
Format in all cases: functional
Enterococcus faecium = assay: Antimicrobial activity against Vancomycin-resistant (Van A) Enterococcus faecium ATCC 51559 assessed as reduction in microbial growth
Enterococcus faecalis = assay: Antimicrobial activity against Vancomycin - resistant Enterococcus faecalis assessed as inhibition of bacterial growth
Staphylococcus aureus [1] = assay: Antibacterial activity against Vancomycin-intermediate Staphylococcus aureus NRS1 assessed as bacterial growth inhibition
Staphylococcus aureus [2] = assay: Antimicrobial activity against Vancomycin-resistant Staphylococcus aureus incubated for 20 hrs by broth dilution method
[3] = Enterococcus faecium, ATCC 51559, read-out: MIC

| SMILES | MIC (Enterococcus faecium) | MIC (Enterococcus faecium; [3]) | MIC (Enterococcus faecalis) | other results |
| --- | --- | --- | --- | --- |
| CN[C@H](CC(C)C)C(=O)N[C@H]1C(=O)N[C@@H](CC(N)=O)C(=O)N[C@H]2C(=S)N[C@H]3C(=O)N[C@H](C(=O)N[C@H](C(=O)O)c4cc(O)cc(O)c4-c4cc3ccc4O)[C@H](O)c3ccc(c(Cl)c3)Oc3cc2cc(c3O[C@@H]2O[C@H](CO)[C@@H](O)[C@H](O)[C@H]2O[C@H]2C[C@](C)(NCc3ccc(-c4ccc(Cl)cc4)cc3)[C@H](O)[C@H](C)O2)Oc2ccc(cc2Cl)[C@H]1O | 2 µg/mL | 4 µg/mL | 2 µg/mL | – |
| CN[C@H](CC(C)C)C(=O)N[C@H]1C(=O)N[C@@H](CC(N)=O)C(=O)N[C@H]2C(=N)N[C@H]3C(=O)N[C@H](C(=O)N[C@H](C(=O)O)c4cc(O)cc(O)c4-c4cc3ccc4O)[C@H](O)c3ccc(c(Cl)c3)Oc3cc2cc(c3O[C@@H]2O[C@H](CO)[C@@H](O)[C@H](O)[C@H]2O[C@H]2C[C@](C)(N)[C@H](O)[C@H](C)O2)Oc2ccc(cc2Cl)[C@H]1O | – | 0.5 µg/mL | 0.5 µg/mL | – |
| CCCCCCCCCC(=O)O[C@H]1[C@H](O)[C@@H](O[C@H]2C[C@](C)(N)[C@H](O)[C@H](C)O2)[C@H](Oc2c3cc4cc2Oc2ccc(cc2Cl)[C@@H](O)[C@@H](NC(=O)[C@@H](CC(C)C)NC)C(=O)N[C@@H](CC(N)=O)C(=O)N[C@H]4C(=O)N[C@H]2C(=O)N[C@H](C(=O)N[C@H](C(=O)O)c4ccccc4-c4cccc2c4)[C@H](O)c2ccc(c(Cl)c2)O3)O[C@@H]1CO | – | 16 µg/mL | – | – |
| CN[C@H](CC(C)C)C(=O)N[C@H]1C(=O)N[C@@H](CC(N)=O)C(=O)N[C@H]2C(=N)N[C@H]3C(=O)N[C@H](C(=O)N[C@H](C(=O)O)c4cc(O)cc(O)c4-c4cc3ccc4O)[C@H](O)c3ccc(c(Cl)c3)Oc3cc2cc(c3O[C@@H]2O[C@H](CO)[C@@H](O)[C@H](O)[C@H]2O[C@H]2C[C@](C)(NCc3ccc(-c4ccc(Cl)cc4)cc3)[C@H](O)[C@H](C)O2)Oc2ccc(cc2Cl)[C@H]1O | 0.06 µg/mL | 0.005 µg/mL | 0.005 µg/mL | – |
| CN[C@H]1C(=O)N[C@@H]2Cc3ccc(cc3)Oc3cc4cc(c3O[C@@H]3O[C@H](C(=O)O)[C@@H](O)[C@H](O)[C@H]3NC(=O)CCCCCCCCC(C)C)Oc3ccc(cc3Cl)[C@@H](O)[C@@H]3NC(=O)[C@H](NC(=O)[C@@H]4NC(=O)[C@@H](NC2=O)c2cc(cc(O)c2Cl)Oc2cc1ccc2O)c1ccc(O)c(c1)-c1c(O[C@H]2O[C@H](CO)[C@@H](O)[C@H](O)[C@@H]2O)cc(O)cc1[C@@H](C(=O)NCCCN(C)C)NC3=O [DALBAVANCIN] | 0.1 µg/mL | – | – | – |
| CCCCCCCCCCCCCC(=O)N[C@@H](CCCCN)C(=O)N[C@@H](CCCCN)C(=O)N[C@@H](CCCCN)C(=O)NC(CCCCNC(=O)[C@H]1NC(=O)[C@H]2NC(=O)[C@H](NC(=O)[C@@H]3NC(=O)[C@H](CC(N)=O)NC(=O)[C@H](NC(=O)[C@@H](CC(C)C)NC)[C@H](O)c4ccc(c(Cl)c4)Oc4cc3cc(c4O[C@@H]3O[C@H](CO)[C@@H](O)[C@H](O)[C@H]3O[C@H]3C[C@](C)(N)[C@H](O)[C@H](C)O3)Oc3ccc(cc3Cl)[C@H]2O)c2ccc(O)c(c2)-c2c(O)cc(O)cc21)C(=O)O (stereo partly specified) | 0.125 µg/mL | – | – | MIC (Staphylococcus aureus [1]): 0.03 µg/mL (≈ 0.0138 µM); MIC (Staphylococcus aureus [2]): 0.05 µg/mL |
| CCCCCCCCCC(=O)OC[C@H]1O[C@@H](Oc2c3cc4cc2Oc2ccc(cc2Cl)[C@@H](O)[C@@H](NC(=O)[C@@H](CC(C)C)NC)C(=O)N[C@@H](CC(N)=O)C(=O)N[C@H]4C(=O)N[C@H]2C(=O)N[C@H](C(=O)N[C@H](C(=O)O)c4ccccc4-c4cccc2c4)[C@H](O)c2ccc(c(Cl)c2)O3)[C@H](O[C@H]2C[C@](C)(N)[C@H](O)[C@H](C)O2)[C@@H](O)[C@@H]1O | 1 µg/mL | – | – | – |
| CN[C@H](CC(C)C)C(=O)N[C@H]1C(=O)N[C@@H](CC(N)=O)C(=O)N[C@H]2C(=O)N[C@H]3C(=O)N[C@H](C(=O)N[C@H](C(=O)NCCCCCCNC(=O)[C@H]4NC(=O)[C@H]5NC(=O)[C@H](NC(=O)[C@@H]6NC(=O)[C@H](CC(N)=O)NC(=O)[C@H](NC(=O)[C@@H](CC(C)C)NC)[C@H](O)c7ccc(c(Cl)c7)Oc7cc6cc(c7O[C@@H]6O[C@H](CO)[C@@H](O)[C@H](O)[C@H]6O[C@H]6C[C@](C)(N)[C@H](O)[C@H](C)O6)Oc6ccc(cc6Cl)[C@H]5O)c5ccc(O)c(c5)-c5c(O)cc(O)cc54)c4cc(O)cc(O)c4-c4cc3ccc4O)[C@H](O)c3ccc(c(Cl)c3)Oc3cc2cc(c3O[C@@H]2O[C@H](CO)[C@@H](O)[C@H](O)[C@H]2O[C@H]2C[C@](C)(N)[C@H](O)[C@H](C)O2)Oc2ccc(cc2Cl)[C@H]1O | – | – | – | MIC (Staphylococcus aureus [2]): 32 µM |
| CN[C@H](CC(C)C)C(=O)N[C@H]1C(=O)N[C@@H](CC(N)=O)C(=O)N[C@H]2C(=O)N[C@H]3C(=O)N[C@H](C(=O)N[C@H](C(=O)O)c4cc(OC)cc(OC)c4-c4cc3ccc4OC)[C@H](O)c3ccc(c(Cl)c3)Oc3cc2cc(c3OC)Oc2ccc(cc2Cl)[C@H]1O | 1.6 µg/mL | – | – | – |
| C=C1NC(=O)[C@H]([C@@H](C)CC)NC(=O)[C@@H](NC(=O)/C(=C/C)NC(=O)[C@@H](N)[C@@H](C)CC)CSC[C@@H](C(=O)N[C@H]2C(=O)N3CCC[C@H]3C(=O)NCC(=O)N[C@H](C(=O)N[C@@H](CCCCN)C(=O)NCCCn3cc(CCC(=O)NCCCOCCOCCOCCCNC(=O)[C@H]4NC(=O)[C@H]5NC(=O)[C@H](NC(=O)[C@@H]6NC(=O)[C@H](CC(N)=O)NC(=O)[C@H](NC(=O)[C@@H](CC(C)C)NC)[C@H](O)c7ccc(c(Cl)c7)Oc7cc6cc(c7O[C@@H]6O[C@H](CO)[C@@H](O)[C@H](O)[C@H]6O[C@H]6C[C@](C)(N)[C@H](O)[C@H](C)O6)Oc6ccc(cc6Cl)[C@H]5O)c5ccc(O)c(c5)-c5c(O)cc(O)cc54)nn3)CS[C@@H]2C)NC(=O)[C@H]([C@@H](C)CC)NC1=O | – | – | 2.3 µM | – |
| CN[C@H](CC(C)C)C(=O)N[C@H]1C(=O)N[C@@H](CC(N)=O)C(=O)N[C@H]2C(=O)N[C@H]3C(=O)N[C@H](C(=O)N[C@H](C(=O)O)c4cc(O)cc(O)c4-c4cc3ccc4O)[C@H](O)c3ccc(c(Cl)c3)Oc3cc2cc(c3O[C@@H]2O[C@H](CO)[C@@H](O)[C@H](O)[C@H]2O[C@H]2C[C@](C)(N)[C@H](O)[C@H](C)O2)Oc2ccc(cc2/C=C/c2ccc(-c3ccccc3)cc2)[C@H]1O | 2 µg/mL | – | – | – |
| CC(=O)OCC1=C(C(=O)O)N2C(=O)[C@@H](NC(=O)CCC[C@@H](N)C(=O)O)[C@H]2SC1 [CEPHALOSPORIN C] | – | – | < 0.5 µg/mL | MIC (Staphylococcus aureus [2]): 1 µg/mL |
| CN[C@H](CC(C)C)C(=O)N[C@H]1C(=O)N[C@@H](CC(N)=O)C(=O)N[C@H]2C(=O)N[C@H]3C(=O)N[C@H](C(=O)N[C@H](C(=O)NCCCNCCCCCCCCNCCCNC(=O)[C@H]4NC(=O)[C@H]5NC(=O)[C@H](NC(=O)[C@@H]6NC(=O)[C@H](CC(N)=O)NC(=O)[C@H](NC(=O)[C@@H](CC(C)C)NC)[C@H](O)c7ccc(c(Cl)c7)Oc7cc6cc(c7O[C@@H]6O[C@H](CO)[C@@H](O)[C@H](O)[C@H]6O[C@H]6C[C@](C)(N)[C@H](O)[C@H](C)O6)Oc6ccc(cc6Cl)[C@H]5O)c5ccc(O)c(c5)-c5c(O)cc(O)cc54)c4cc(O)cc(O)c4-c4cc3ccc4O)[C@H](O)c3ccc(c(Cl)c3)Oc3cc2cc(c3O)Oc2ccc(cc2Cl)[C@H]1O | 0.1 µM | 48 µM | – | – |
| CN[C@@H](CC(C)C)C(=O)N[C@@H]1C(=O)N[C@H](CC(N)=O)C(=O)N[C@@H]2C(=O)N[C@@H]3C(=O)N[C@@H](C(=O)N[C@@H](C(=O)NCCCSSCCCNC(=O)[C@H]4NC(=O)[C@H]5NC(=O)[C@H](NC(=O)[C@@H]6NC(=O)[C@H](CC(N)=O)NC(=O)[C@H](NC(=O)[C@@H](CC(C)C)NC)[C@H](O)c7ccc(c(Cl)c7)Oc7cc6cc(c7O[C@@H]6O[C@H](CO)[C@@H](O)[C@H](O)[C@H]6O[C@H]6C[C@](C)(N)[C@H](O)[C@H](C)O6)Oc6ccc(cc6Cl)[C@H]5O)c5ccc(O)c(c5)-c5c(O)cc(O)cc54)c4cc(O)cc(O)c4-c4cc3ccc4O)[C@@H](O)c3ccc(c(Cl)c3)Oc3cc2cc(c3O[C@@H]2O[C@H](CO)[C@@H](O)[C@H](O)[C@H]2O[C@H]2C[C@](C)(N)[C@H](O)[C@H](C)O2)Oc2ccc(cc2Cl)[C@@H]1O | – | – | – | MIC (Staphylococcus aureus [2]): 15 µM |
| CN[C@H](CC(C)C)C(=O)N[C@H]1C(=O)N[C@@H](CC(N)=O)C(=O)N[C@H]2C(=O)N[C@H]3C(=O)N[C@H](C(=O)N[C@H](C(=O)O)c4cc(O)cc(O)c4-c4cc3ccc4O)[C@H](O)c3ccc(c(Cl)c3)Oc3cc2cc(c3O[C@@H]2O[C@H](CO)[C@@H](O)[C@H](O)[C@H]2O[C@H]2C[C@](C)(NCc3cccc(OCC/C=C\CCOc4cccc(CN[C@@]5(C)C[C@H](O[C@H]6[C@H](Oc7c8cc9cc7Oc7ccc(cc7Cl)[C@@H](O)[C@@H](NC(=O)[C@@H](CC(C)C)NC)C(=O)N[C@@H](CC(N)=O)C(=O)N[C@H]9C(=O)N[C@H]7C(=O)N[C@H](C(=O)N[C@H](C(=O)O)c9cc(O)cc(O)c9-c9cc7ccc9O)[C@H](O)c7ccc(c(Cl)c7)O8)O[C@H](CO)[C@@H](O)[C@@H]6O)O[C@@H](C)[C@H]5O)c4)c3)[C@H](O)[C@H](C)O2)Oc2ccc(cc2Cl)[C@H]1O | – | – | – | MIC (Staphylococcus aureus [1]): 1 µg/mL (≈ 0.313 µM) |
| CN[C@H](CC(C)C)C(=O)N[C@H]1C(=O)N[C@@H](CC(N)=O)C(=O)N[C@H]2C(=O)N[C@H]3C(=O)N[C@H](C(=O)N[C@H](C(=O)O)c4ccccc4-c4cccc3c4)[C@H](O)c3ccc(c(Cl)c3)Oc3cc2cc(c3O[C@@H]2O[C@H](CO)[C@@H](O)[C@H](O)[C@H]2O[C@H]2C[C@](C)(NCc3ccc(OCCCN4C(=O)[C@@H]5[C@H](C4=O)[C@@H](C)C[C@H]5/C=C/c4ccccc4)cc3)[C@H](O)[C@H](C)O2)Oc2ccc(cc2Cl)[C@H]1O | 2 µg/mL | 31 µg/mL | – | – |
